Among the data in PubChem BioAssay AID2243 (The Scripps Research Institute Molecular Screening Center, 2010) are CC50 values, retold here.

In this assay the test system is cytotoxicity counterscreen, ATP luminescence viability. In words: cytotoxicity of test compounds, late-stage follow-up, cytotoxicity control for RBBP9 inhibitor project, cell-based, luminescence (AID 2243).

Usually CC50 stands for the concentration at which the toxic effect on the cells reaches its halfway point.

Active and inactive are the calls of the source. The rule behind the calls is not given here.

`C/C(=N\OC(=O)C1CCCCC1)c1nccs1`: the CC50 was > 100 µM (inactive).
